Series [1] in a line: Oil-water partition coefficient (n-octanol / pH 7.4 phosphate buffer). The class given is physicochemical. The method, then: • a) To a 5 mL glass bottle was added 1 mL n-octanol and 1 mL pH 7.4 phosphate buffer, respectively. • b) The compound was added to a DMSO solution to prepare a compound stock solution with a concentration of 10 mM, and then 20 μL compound stock solution was added to the mixture solution of n-octanol and phosphate buffer. • c) Shaken at room temperature for 1 hour at a rate of 300/minute. • d) Kept for 30 minutes, and after the solution was completely layered, the upper and lower layers of the solution were taken separately to a 96 well deep well plate, and LC-MS/MS was used for detection via injection. • e) The aliquots of 1-octanol and aqueous solution were diluted consecutively with DMSO to obtain the final sample for LC-MS/MS analysis. Three consecutive dilutions were carried on every 1-octanol phase with covering a concentration range of 2500 fold. Every final aqueous phase was diluted consecutively twice with covering a concentration range of 100 fold. The MS peak areas of these solutions were used to generate log (peak area) based on the log (relative concentration) calibration line.
[formula] • Coct=sample concentration in n-octanol • Caq=sample concentration in pH 7.4 phosphate buffer

A short description of series [2]: Cytotoxicity test (cell viability, CellTier Glo). The class given is cell-based. The conditions noted are these: human. The method, then:
(§1) • Virus: The HIV-1 pseudovirus used in this experiment was a replication deficient virus, which is constructed by WuXi AppTec. • HEK 293T cell line was purchased from ATCC, and Item No. is CRL-11268. Cells were cultured in DMEM medium with 10% fetal bovine serum and 1% double antibody. • Reagents
(§2) On the first day, HEK 293T cells were inoculated into a 96 well test plate at the density of 55000 cells per well and […] per well, and incubated overnight in a 5% CO2 and 37° C. incubator.
(§3) On the second day, the tested compounds (compounds provided in the example of the present invention) and the control compounds were diluted 4-fold with cell culture medium for a total of 8 concentration points, and 50 μL diluted compounds were added to each well, and each well was performed duplicate.
(§4) Cell Control (cells, no compound treatment or virus infection) and virus control (cells infected with virus, no compound treatment) were set up. The final initial test concentration of the tested compounds and control compounds was 1000 nM (Table 1), and the amount of virus infection was 100 TCID50 per well. The total volume of cell culture medium was 200 μL per well, and the final concentration of DMSO in the culture medium was 0.5%.
(§5) The cells were cultured in a 5% CO2 and 37° C. incubator for additional 3 days.
(§6) On the fifth day, in the cytotoxicity test plates, 100 μL cell supernatant were sucked from each well, 100 μL cell viability assay reagent CellTier Gloin was added in dark. Cell viability in each well was detected by BioTek enzyme-linked immunosorbent assay reader, and the data was used for sample cytotoxicity analysis.
(§7) Dose-response curve was drawn through GraphPad Prism software. The calculation equations for antiviral activity (% Inhibition) and cell viability (% cell viability) were as follow:
(§8) The values of EC50 and CC50 were analyzed by GraphPad Prism (version 5) software, and nonlinear fitting analysis was used for inhibitory activity and cell viability of the compounds, and the fitting method was “log (inhibitor) vs. response—Variable slope”.
(§9) 3. The HIV-1 pseudovirus experiment was applied to determinate the in vitro antiviral activity and cytotoxicity of the tested compound on HEK 293T cells, and the experimental results were shown in the table below.

Series [3] relates to HIV-1 pseudovirus. In words: HIV-1 pseudovirus infection test (antiviral activity, luciferase). The class given is cell-based. Here is the method:
as §1, §2, §3
Subsequently, the HIV-1 pseudovirus was diluted to 100 TCID50/50 μL with cell culture medium, and 50 μL diluted virus was added to each well.
as §4, §5
On the fifth day, in the antiviral activity test plates, 100 μL cell supernatant was sucked away from each well, 100 μL 2X luciferase reporter gene assay reagent Britellite plus was added in dark. The luciferase activity in each well of the test plates was detected by Envision. The data was used for sample antiviral activity analysis.
as §7, §8, §9

Series [4] deals with HIV-1 integrase (Human immunodeficiency virus type 1 group M subtype B, UniProt P04585). In words: Integrase activity test (HIV-1 Integrase Assay Kit EZ-1700).
Experimental: A non-radioactive assay method, an integrase assay kit, was used to measure integrase activity quantitatively.
Each component was prepared according to the instructions of the kit; preparation of test sample, 5 mM DMSO solution was prepared for backup, working solution was prepared according to the initial final concentration determined at the time of method establishment, with a 4-fold gradient dilution and 10 concentrations.
• (1) The working solution of sample was prepared according to the initial concentration determinated during the methodology establishment process; • (2) Reagents were prepared according to the methods provided in the kit; • (3) DS DNA coating—blocking—addition of integrase solution—addition of sample—addition of TS DNA—addition of HRP antibody-addition of TMB peroxidase substrate—TMB termination reaction-detection of light absorption value at 450 nm.
The software Graphpad Prism 8.0 was applied and the calculation equation of Log (inhibitor) vs. response variable slope was used to fit the IC50 curve.
Series [5] in a line: PK test of compounds (mouse). The conditions noted are these: for bioavailability (in words): PK test in mice; for half-life / bioavailability: male, mouse, plasma, ICR mice; for half-life: PO 10 mg/kg; for bioavailability: PO 10 mg/kg (IV 2 mg/kg). The class given is in vivo, ICR mice. The method, then:
The mice were not fed until 5 pm on the day before administration, and fasted overnight with water. The mice in Group IV were administered with 2 mg/kg, while those in Group PO were administered with 10 mg/kg. Feeding was resumed 2 hours after administration. For mice administered by gavage, 20 μL blood was collected from the saphenous vein in calf before administration and 0.25, 0.5, 1, 2, 4, 8, and 24 hours after administration, respectively, and placed in EDTA-K2 anticoagulant blood collection tubes, and then the blood would be placed on ice until centrifuged to obtain plasma samples. The plasma samples were centrifuged at 4° C. (3500 rpm, 10 min), and after separation, the samples were transferred to EP tubes and stored at −80° C. for detection. For mice admistrated by intravenous injection, 20 μL blood was collected from the saphenous vein in calf before administration and 0.0833, 0.25, 0.5, 1, 2, 4, 8 and 24 hours after administration, respectively, and placed in EDTA-K2 anticoagulant blood collection tubes, and then the blood would be placed on ice until centrifuged to obtain a plasma sample. The plasma samples were centrifuged at 4° C. (3500 rpm, 10 min), and after separation, the samples were transferred to EP tubes and stored at −80° C. for detection. The level of tested compounds in blood plasma of mice, who had orally administrated with different concentrations of drugs were determinated: 10 μL mouse blood at each time point after administration was taken, 100 μL methanol containing an internal standard (100 ng/mL) was added, vortex mixed for 1 minute, centrifuged at 4° C. (12000 rmp, 5 minutes), and 1 μL supernatant was taken from the plasma samples for LC-MS/MS analysis.

The subject of series [6] is HEK 293T cells. In words: Cytotoxicity test (cell viability, CellTier Glo). The conditions noted are these: HEK 293T cells, highest test concentration 1000 nM. The class given is cell-based. The method, then: as §1, §2, §3, §4, §5, §6, §7, §8, §9
[7] abbreviates: Human immunodeficiency virus 1, HEK-293T, 72 h.
[8] abbreviates: n-octanol / pH 7.4 phosphate buffer, pH 7.4, read-out: Log D (pH 7.4).
The mark [9] stands for this setting: HIV-1 pseudovirus, HEK 293T cells, 3 days, luciferase, read-out: EC50.

Data on 20 compounds can be found in patent publication US20250376481A1, “POLYCYCLIC CARBAMOYL PYRIDONE DERIVATIVE, PREPARATION METHOD THEREFOR AND PHARMACEUTICAL COMPOSITION THEREOF” (NANJING AIDEA PHARMACEUTICAL TECHNOLOGY CO., LTD., priority 2021, published 2025).

Read-outs that look alike come from different tables or passages of the source.

The compound `O=C(NCc1ccc(F)cc1F)c1cn2c(c(O)c1=O)C(=O)N1C(C2)OCCC12CC2` (racemic) [Compound 13, (2,4-difluorophenyl)-7′-hydroxy-6′,8′-dioxo-2′,3′,6′,8′,12′,12a′-hexahydrospiro[cyclopropane-1,4′-pyridino[1′,2′:4,5]pyrazine[2,1-b][1,3]oxazine]-9′-formamide] returned a logD in series [1] (pH 7.4) of 1.5. In addition, the half-maximal cytotoxic concentration (CC50) at 3 days in series [2] was > 1000 nM. The compound further registered an EC50 in series [3] (setting [7]) of 1.05 nM.
For the compound `O=C(NCc1ccc(F)cc1F)c1cn2c(c(O)c1=O)C(=O)N1C(C2)OCC12CC2` (racemic) [Compound 16], the logD in series [1] (pH 7.4) amounted to 1.8. Also, the CC50 at 3 days in series [2] was > 1000 nM. In series [3] (setting [7]), a half-maximal effect (EC50) was put at 1.11 nM.
In series [4], `O=C(NCc1c(F)cc(F)cc1F)c1cn2c(c(O)c1=O)C(=O)N1[C@H]3CC[C@H](C3)O[C@@H]1C2` [BIC, Bictegravir, reference compound] had an IC50 of 21.2 nM.
Consider `C[C@H]1N2C(=O)c3c(O)c(=O)c(C(=O)NCc4ccc(F)cc4F)cn3C[C@@H]2OCC12CCC2` [Compound 2], for which, in series [5], the “bioavailability (in words)” value is reported as “good bioavailability”, the half-life was 1.94 ± 0.04 h and the bioavailability was 50.8%. The logD in series [1] (setting [8]) is 2.5. The CC50 at 3 days in series [2] was > 1000 nM. The EC50 in series [3] (setting [7]) was 1.19 nM.
For the compound `C[C@H]1N2C(=O)c3c(O)c(=O)c(C(=O)NCc4ccc(F)cc4F)cn3C[C@@H]2OCC12CCCC2` [Compound 3], the cytotoxic concentration (CC50) at 3 days in series [2] is > 1000 nM. This compound also displayed an EC50 in series [3] (setting [7]) of 5.63 nM.
Turning to `C[C@H]1N2C(=O)c3c(O)c(=O)c(C(=O)NCc4ccc(F)cc4F)cn3C[C@@H]2OCC12CCCCC2` [Compound 4], the CC50 at 3 days in series [2] was > 1000 nM. This compound had an EC50 in series [3] (setting [7]) of 5.83 nM.
On the same counts, the results for `C[C@H]1N2C(=O)c3c(O)c(=O)c(C(=O)NCc4ccc(F)cc4F)cn3C[C@@H]2OCC12CCOCC2` [Compound 5] are > 1000 nM and 4.45 nM.
`C[C@@H]1CC2(CC2)O[C@H]2Cn3cc(C(=O)NCc4ccc(F)cc4F)c(=O)c(O)c3C(=O)N12` [Compound 6]: in series [5], the “bioavailability (in words)” value is “good bioavailability”, the half-life was 2.68 ± 0.66 h and the bioavailability is 42.5%. For the same compound, the logD in series [1] (setting [8]) was determined as 2. The CC50 at 3 days in series [2] was > 1000 nM. In addition, the EC50 in series [3] (setting [7]) came out at 3.03 nM.
`C[C@@H]1CC2(CCCC2)O[C@H]2Cn3cc(C(=O)NCc4ccc(F)cc4F)c(=O)c(O)c3C(=O)N12` [Compound 7]: in series [2], the CC50 at 3 days was > 1000 nM. Besides, in series [3] (setting [7]), the EC50 was found to be 11.6 nM.
On the same counts, the results for `C[C@@H]1CC2(CCCCC2)O[C@H]2Cn3cc(C(=O)NCc4ccc(F)cc4F)c(=O)c(O)c3C(=O)N12` [Compound 8] are > 1000 nM and 13.7 nM.
On the same counts, the results for `C[C@@H]1CC2(CCOCC2)O[C@H]2Cn3cc(C(=O)NCc4ccc(F)cc4F)c(=O)c(O)c3C(=O)N12` [Compound 9] are > 1000 nM and 5.09 nM.
Regarding `C[C@H]1N2C(=O)c3c(O)c(=O)c(C(=O)NCc4ccc(F)cc4F)cn3C[C@@H]2OC12CC2` [Compound 10], in series [5], the “bioavailability (in words)” value is “good bioavailability”, the half-life is 1.53 ± 1.06 h and the bioavailability was 32.9%. The logD in series [1] (setting [8]) came to 1.9. The CC50 at 3 days in series [2] was > 1000 nM. Moreover, in series [3] (setting [7]), the EC50 amounted to 2.7 nM.
As to `C[C@H]1N2C(=O)c3c(O)c(=O)c(C(=O)NCc4ccc(F)cc4F)cn3C[C@@H]2OC12CCCCC2` [Compound 12], the CC50 at 3 days in series [2] was > 1000 nM. In addition, it took 4.93 nM to reach a half-maximal effect in series [3] (setting [7]) (EC50).
`C[C@@H]1CCO[C@H]2Cn3cc(C(=O)NCc4ccc(F)cc4F)c(=O)c(O)c3C(=O)N12` [DTG, Dolutegravir, reference compound]: in series [5], the half-life is 3.7 ± 0.09 h and the bioavailability came out at 46%. In addition, in series [1] (setting [8]), the logD was 1.6. Further, the CC50 at 3 days in series [2] is > 1000 nM. For the same compound, the “antiviral activity against HIV-1 pseudovirus (in words)” value in series [3] (HEK 293T cells) is given as “have antiviral activity”. In series [3] (setting [7]), a half-maximal response (EC50) required 1.49 nM.
On to `Cc1nnc(C(=O)NC(C)(C)c2nc(C(=O)NCc3ccc(F)cc3)c(O)c(=O)n2C)o1` [RAL, Raltegravir, reference compound], for which the CC50 at 3 days in series [2] (HEK 293T cells, highest test concentration 1000 nM, read-out: CC50) was > 1000 nM. Further, in series [3] (HEK 293T cells), the “antiviral activity against HIV-1 pseudovirus (in words)” value is recorded as “have antiviral activity”. Also, the EC50 in series [3] (setting [7]) is 3.42 nM.
With `C[C@]12CC[C@H]3[C@@H](CCC4=CC(=O)CC[C@@]43C)[C@@H]1CC[C@@H]2O` [Testosterone, reference compound], the logD in series [1] (n-octanol / pH 7.4 phosphate buffer, read-out: Log D (pH 7.4)) was 2.85.
As to “(R)—N-(2,4-difluorophenyl)-6′-hydroxy-5′,7′-dioxo-5′,7′,11′,11a′-tetrahydro-2′H-spiro[cyclopropane-1,3′-oxazole[3,2-a]pyridino[1,2-d]pyrazine]-8′-formamide [Compound 18]”, the CC50 in series [6] was > 1000 nM. Besides, the EC50 in series [3] (setting [9]) came out at 3.34 nM.
In the case of “(R)—N-(2,4-difluorophenyl)-7′-hydroxy-6′,8′-dioxo-2′,3′,6′,8′,12′,12a′-hexahydrospiro[cyclopropane-1,4′-pyridino[1′,2′:4,5]pyrazine[2,1-b][1,3]oxazine]-9′-formamide [Compound 15]”, the CC50 in series [6] is > 1000 nM. Also, in series [3] (setting [9]), the EC50 amounted to 14 nM.
“(S)—N-(2,4-difluorophenyl)-6′-hydroxy-5′,7′-dioxo-5′,7′,11′,11a′-tetrahydro-2′H-spiro[cyclopropane-1,3′-oxazole[3,2-a]pyridino[1,2-d]pyrazine]-8′-formamide [Compound 17]”: the CC50 in series [6] was > 1000 nM. Moreover, the EC50 in series [3] (setting [9]) was 3.73 nM.
On to “(S)—N-(2,4-difluorophenyl)-7′-hydroxy-6′,8′-dioxo-2′,3′,6′,8′,12′,12a′-hexahydrospiro[cyclopropane-1,4′-pyridino[1′,2′:4,5]pyrazine[2,1-b][1,3]oxazine]-9′-formamide [Compound 14]”, for which the CC50 in series [6] is > 1000 nM. Moreover, in series [3] (setting [9]), the concentration for a half-maximal effect (EC50) was determined as 8.72 nM.

The term CC50 denotes the concentration at which the toxic effect on the cells reaches its halfway point. What is called EC50 is the midpoint of the concentration-response curve. By IC50 is commonly meant the concentration that gives 50% inhibition. Lower therefore signals higher potency. By half-life is commonly meant the time needed for the level to fall by half in the phase considered. As usually defined, the bioavailability is dose-corrected exposure relative to a reference, in per cent. A low value points to poor availability.
